Earlier results on one molecule are cited in patent US20210395200A1, “SYNTHETIC PROCESSES FOR THE PRODUCTION OF 1-((3S,4R)-4-(2,6-DIFLUORO-4-METHOXYPHENYL)-2-OXOPYRROLIDIN-3-YL)-3-PHENYLUREA” (BRISTOL-MYERS SQUIBB COMPANY, priority 2018, published 2021).

For the data set, the target named is T1, FPR2 (Homo sapiens, UniProt P25090).
T1 sequence (P25090 1-351): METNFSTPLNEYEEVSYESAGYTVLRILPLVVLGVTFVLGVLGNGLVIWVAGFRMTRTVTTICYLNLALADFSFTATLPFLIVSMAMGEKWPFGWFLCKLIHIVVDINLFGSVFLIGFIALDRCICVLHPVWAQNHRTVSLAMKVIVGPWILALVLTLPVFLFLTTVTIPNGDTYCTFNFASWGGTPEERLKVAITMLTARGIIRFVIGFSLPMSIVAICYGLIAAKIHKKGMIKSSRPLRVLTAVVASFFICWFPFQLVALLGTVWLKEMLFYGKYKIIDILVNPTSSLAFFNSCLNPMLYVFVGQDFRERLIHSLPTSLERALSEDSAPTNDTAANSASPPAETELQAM
The following applies: background statement referring to U.S. Pat. No. 9,822,069.

Each structure is given as a SMILES string.

`COc1cc(F)c([C@@H]2CNC(=O)[C@H]2NC(=O)Nc2ccccc2)c(F)c1` [Compound 1, 1-((3S,4R)-4-(2,6-difluoro-4-methoxyphenyl)-2-oxopyrrolidin-3-yl)-3-phenylurea]: the FPR2 agonist activity entry was “robust FPR2 agonist activity”.
